We go through 26 compounds from patent US9505767B2, “Pyrazolo[1,5-A]pyrimidin-7(4H)-onehistone demethylase inhibitors” (Genentech, Inc., priority 2013, dated 2016).

The structures appear in SMILES notation.

The assay deals with T1, KDM5A (Homo sapiens, UniProt P29375).
T1 construct: Full length recombinant Flag tagged KDM5A protein was purified from Sf9 insect cells; Flag; made in house; host or cells: Sf9 insect cells
T1 sequence (P29375 whole entry): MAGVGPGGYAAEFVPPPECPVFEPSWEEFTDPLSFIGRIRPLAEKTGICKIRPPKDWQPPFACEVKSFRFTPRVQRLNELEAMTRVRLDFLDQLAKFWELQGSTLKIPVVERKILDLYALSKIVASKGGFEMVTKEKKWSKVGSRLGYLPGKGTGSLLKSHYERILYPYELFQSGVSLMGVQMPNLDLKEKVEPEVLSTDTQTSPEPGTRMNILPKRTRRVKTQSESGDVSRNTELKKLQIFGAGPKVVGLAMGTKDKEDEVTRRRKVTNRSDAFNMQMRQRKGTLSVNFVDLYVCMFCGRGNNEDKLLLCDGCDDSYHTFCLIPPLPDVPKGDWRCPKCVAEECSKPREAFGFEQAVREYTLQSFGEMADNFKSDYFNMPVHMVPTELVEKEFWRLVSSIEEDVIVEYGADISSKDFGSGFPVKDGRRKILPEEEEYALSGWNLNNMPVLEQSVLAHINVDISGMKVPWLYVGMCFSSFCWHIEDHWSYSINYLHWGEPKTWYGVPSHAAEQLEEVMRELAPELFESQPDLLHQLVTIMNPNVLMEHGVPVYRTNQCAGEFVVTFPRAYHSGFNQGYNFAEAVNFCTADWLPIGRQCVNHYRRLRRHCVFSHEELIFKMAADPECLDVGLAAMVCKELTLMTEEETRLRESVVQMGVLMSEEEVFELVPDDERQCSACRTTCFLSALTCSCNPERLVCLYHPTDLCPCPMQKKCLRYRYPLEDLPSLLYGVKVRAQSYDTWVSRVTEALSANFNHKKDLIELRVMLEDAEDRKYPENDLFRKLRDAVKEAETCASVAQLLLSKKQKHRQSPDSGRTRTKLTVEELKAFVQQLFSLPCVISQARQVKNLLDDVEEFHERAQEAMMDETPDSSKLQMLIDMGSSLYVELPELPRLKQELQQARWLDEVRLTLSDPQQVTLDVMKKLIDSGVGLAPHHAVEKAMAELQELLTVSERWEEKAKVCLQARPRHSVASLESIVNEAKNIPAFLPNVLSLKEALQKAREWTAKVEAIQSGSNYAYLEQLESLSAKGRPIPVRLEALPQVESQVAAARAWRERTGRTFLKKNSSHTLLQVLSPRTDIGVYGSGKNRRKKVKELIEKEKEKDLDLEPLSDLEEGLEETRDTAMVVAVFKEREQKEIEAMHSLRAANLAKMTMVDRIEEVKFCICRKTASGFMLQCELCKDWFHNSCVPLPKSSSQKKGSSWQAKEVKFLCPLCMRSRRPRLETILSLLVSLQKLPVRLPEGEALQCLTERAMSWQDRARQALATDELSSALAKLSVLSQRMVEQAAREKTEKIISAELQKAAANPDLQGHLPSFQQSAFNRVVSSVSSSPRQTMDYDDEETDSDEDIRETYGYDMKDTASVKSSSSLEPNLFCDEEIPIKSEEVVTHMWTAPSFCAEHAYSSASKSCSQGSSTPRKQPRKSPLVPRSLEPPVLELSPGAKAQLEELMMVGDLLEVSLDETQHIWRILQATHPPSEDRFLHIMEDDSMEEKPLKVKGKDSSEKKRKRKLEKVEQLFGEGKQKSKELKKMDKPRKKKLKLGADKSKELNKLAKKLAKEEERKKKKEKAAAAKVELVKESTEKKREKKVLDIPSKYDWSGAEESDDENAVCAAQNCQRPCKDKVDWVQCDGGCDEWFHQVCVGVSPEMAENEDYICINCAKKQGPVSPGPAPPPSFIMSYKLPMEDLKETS
The assay is described as follows: KDM5A Demethylase Assay (TR-FRET Assay-B). Type of assay: biochemical. As to conditions: full length recombinant Flag tagged KDM5A, 2 nM, TrisCl pH 7.4, 3.0 μM α-ketoglutarate, read-out: B KDM5A HTRF (IC50). For orientation: TR-FRET usually uses a lanthanide donor and a delayed reading to cut background.
Method: Full length recombinant Flag tagged KDM5A protein was purified from Sf9 insect cells. The demethylation reaction buffer contained 50 mM TrisCl pH 7.4, 0.01% Triton X-100, 0.025 mg/mL BSA, 1 mM ascorbate, 2 mM TCEP, 3.0 μM α-ketoglutarate, and 50 μM Fe2(NH4)2(SO4)2. […] After a one hour incubation assays were read on a Perkin-Elmer Envision equipped with a laser source and appropriate filters.
With `CCc1c(C)[nH]c2c(-c3cnn(-c4ncc(C)cn4)c3)cnn2c1=O` [Example 2, 6-ethyl-5-methyl-3-(1-(5-methylpyrimidin-2-yl)-1H-pyrazol-4-yl)pyrazolo[1,5-a]pyrimidin-7(4H)-one], the half-inhibitory concentration (IC50) (usually the concentration needed to halve the response being measured) came out at 16.1 nM.
The same measure for `CCc1c(C)[nH]c2c(-c3cnn(-c4ccncn4)c3)cnn2c1=O` [Example 3, 6-ethyl-5-methyl-3-(1-(pyrimidin-4-yl)-1H-pyrazol-4-yl)pyrazolo[1,5-a]pyrimidin-7(4H)-one]: 158 nM.
As to `CCc1c(C)[nH]c2c(-c3cnn(-c4nccc(N(C)C)n4)c3)cnn2c1=O` [Example 4, 3-(1-(4-(dimethylamino)pyrimidin-2-yl)-1H-pyrazol-4-yl)-6-ethyl-5-methylpyrazolo[1,5-a]pyrimidin-7(4H)-one], the IC50 stood at 47 nM.
The same measure for `CCc1c(C)[nH]c2c(-c3cnn(-c4ncc(N(C)C)cn4)c3)cnn2c1=O` [Example 5, 3-(1-(5-(dimethylamino)pyrimidin-2-yl)-1H-pyrazol-4-yl)-6-ethyl-5-methylpyrazolo[1,5-a]pyrimidin-7(4H)-one]: 60.3 nM; for `CCc1c(C)[nH]c2c(-c3cnn(-c4nccc(N5CCCC5)n4)c3)cnn2c1=O` [Example 6, 6-ethyl-5-methyl-3-(1-(4-(pyrrolidin-1-yl)pyrimidin-2-yl)-1H-pyrazol-4-yl)pyrazolo[1,5-a]pyrimidin-7(4H)-one]: 52.9 nM.
With `CCc1c(C)[nH]c2c(-c3cnn(-c4nccc(OC)n4)c3)cnn2c1=O` [Example 7, 6-ethyl-3-(1-(4-methoxypyrimidin-2-yl)-1H-pyrazol-4-yl)-5-methylpyrazolo[1,5-a]pyrimidin-7(4H)-one], the IC50 stood at 8.6 nM.
The figure for `CCc1c(C)[nH]c2c(-c3cnn(-c4nccs4)c3)cnn2c1=O` [Example 8, 6-ethyl-5-methyl-3-(1-(thiazol-2-yl)-1H-pyrazol-4-yl)pyrazolo[1,5-a]pyrimidin-7(4H)-one] is 136 nM; for `CCc1c(C)[nH]c2c(-c3cnn(-c4cc(C5CC5)ccn4)c3)cnn2c1=O` [Example 9, 3-(1-(4-cyclopropylpyridin-2-yl)-1H-pyrazol-4-yl)-6-ethyl-5-methylpyrazolo[1,5-a]pyrimidin-7(4H)-one] it is 16.6 nM; for `CCc1c(C)[nH]c2c(-c3cnn(-c4cc(C(=O)O)ccn4)c3)cnn2c1=O` [Example 10, 2-(4-(6-ethyl-5-methyl-7-oxo-4,7-dihydropyrazolo[1,5-a]pyrimidin-3-yl)-1H-pyrazol-1-yl)isonicotinic acid] it is 201 nM.
The same measure for `CCc1c(C)[nH]c2c(-c3cnn(-c4cc(CO)ccn4)c3)cnn2c1=O` [Example 11, 6-ethyl-3-(1-(4-(hydroxymethyl)pyridin-2-yl)-1H-pyrazol-4-yl)-5-methylpyrazolo[1,5-a]pyrimidin-7(4H)-one]: 2.3 nM; for `CCc1c(C)[nH]c2c(-c3cnn(-c4ccc(CO)cn4)c3)cnn2c1=O` [Example 12, 6-ethyl-3-(1-(5-(hydroxymethyl)pyridin-2-yl)-1H-pyrazol-4-yl)-5-methylpyrazolo[1,5-a]pyrimidin-7(4H)-one]: 31.3 nM; for `CCc1c(C)[nH]c2c(-c3cnn(-c4cc(Cl)ccn4)c3)cnn2c1=O` [Example 13, 3-(1-(4-chloropyridin-2-yl)-1H-pyrazol-4-yl)-6-ethyl-5-methylpyrazolo[1,5-a]pyrimidin-7(4H)-one]: 66.1 nM.
On to `CCc1c(C)[nH]c2c(-c3cnn(-c4ncccn4)c3)cnn2c1=O` [Example 14, 6-ethyl-5-methyl-3-(1-(pyrimidin-2-yl)-1H-pyrazol-4-yl)pyrazolo[1,5-a]pyrimidin-7(4H)-one], for which the IC50 stood at 16.5 nM.
Consider `CCc1c(C)[nH]c2c(-c3cnn(-c4cc(OC)ccn4)c3)cnn2c1=O` [Example 15, 6-ethyl-3-(1-(4-methoxypyridin-2-yl)-1H-pyrazol-4-yl)-5-methylpyrazolo[1,5-a]pyrimidin-7(4H)-one], for which the IC50 worked out at 66.1 nM.
As for `CCc1c(C)[nH]c2c(-c3cnn(-c4cc(N(C)C)ccn4)c3)cnn2c1=O` [Example 16, 3-(1-(4-(dimethylamino)pyridin-2-yl)-1H-pyrazol-4-yl)-6-ethyl-5-methylpyrazolo[1,5-a]pyrimidin-7(4H)-one], the IC50 is 406 nM.
On to `CCc1c(C)[nH]c2c(-c3cnn(-c4cc(OCCO)ccn4)c3)cnn2c1=O` [Example 17, 6-ethyl-3-(1-(4-(2-hydroxyethoxy)pyridin-2-yl)-1H-pyrazol-4-yl)-5-methylpyrazolo[1,5-a]pyrimidin-7(4H)-one], for which the IC50 amounted to 14.1 nM.
As for `CCc1c(C)[nH]c2c(-c3cnn(-c4cc(OCCN)ccn4)c3)cnn2c1=O` [Example 18, 3-(1-(4-(2-aminoethoxy)pyridin-2-yl)-1H-pyrazol-4-yl)-6-ethyl-5-methylpyrazolo[1,5-a]pyrimidin-7(4H)-one], the half-maximal inhibitory concentration (IC50) is 9.8 nM.
The figure for `Cc1[nH]c2c(-c3cnn(-c4ncccn4)c3)cnn2c(=O)c1C(C)C` [Example 19, 6-isopropyl-5-methyl-3-(1-(pyrimidin-2-yl)-1H-pyrazol-4-yl)pyrazolo[1,5-a]pyrimidin-7(4H)-one] is 5.7 nM.
The figure for `Cc1[nH]c2c(-c3cnn(-c4ccccn4)c3)cnn2c(=O)c1C(C)C` [Example 20, 6-isopropyl-5-methyl-3-(1-(pyridin-2-yl)-1H-pyrazol-4-yl)pyrazolo[1,5-a]pyrimidin-7(4H)-one] is 8.3 nM; for `Cc1ccc(-n2cc(-c3cnn4c(=O)c(C(C)C)c(C)[nH]c34)cn2)nc1` [Example 21, 6-isopropyl-5-methyl-3-(1-(5-methylpyridin-2-yl)-1H-pyrazol-4-yl)pyrazolo[1,5-a]pyrimidin-7(4H)-one] it is 9.1 nM; for `Cc1ccnc(-n2cc(-c3cnn4c(=O)c(C(C)C)c(C)[nH]c34)cn2)c1` [Example 22, 6-isopropyl-5-methyl-3-(1-(4-methylpyridin-2-yl)-1H-pyrazol-4-yl)pyrazolo[1,5-a]pyrimidin-7(4H)-one] it is 23.6 nM.
The same measure for `Cc1ccnc(-n2cc(-c3cnn4c(=O)c(C(C)C)c(C)[nH]c34)cn2)n1` [Example 23, 6-isopropyl-5-methyl-3-(1-(4-methylpyrimidin-2-yl)-1H-pyrazol-4-yl)pyrazolo[1,5-a]pyrimidin-7(4H)-one]: 54.3 nM; for `Cc1cnc(-n2cc(-c3cnn4c(=O)c(C(C)C)c(C)[nH]c34)cn2)nc1` [Example 24, 6-isopropyl-5-methyl-3-(1-(5-methylpyrimidin-2-yl)-1H-pyrazol-4-yl)pyrazolo[1,5-a]pyrimidin-7(4H)-one]: 16.6 nM; for `Cc1[nH]c2c(-c3cnn(-c4ccc(CO)cn4)c3)cnn2c(=O)c1C(C)C` [Example 25, 3-(1-(5-(hydroxymethyl)pyridin-2-yl)-1H-pyrazol-4-yl)-6-isopropyl-5-methylpyrazolo[1,5-a]pyrimidin-7(4H)-one]: 6.6 nM.
For the compound `Cc1ccnc(-n2cc(-c3cnn4c(=O)c(C5CC5)c(C)[nH]c34)cn2)c1` [Example 28, 6-cyclopropyl-5-methyl-3-(1-(4-methylpyridin-2-yl)-1H-pyrazol-4-yl)pyrazolo[1,5-a]pyrimidin-7(6H)-one], the IC50 amounted to 13.4 nM.
As to `Cc1[nH]c2c(-c3cnn(-c4ncccn4)c3)cnn2c(=O)c1C1CC1` [Example 29, 6-cyclopropyl-5-methyl-3-(1-(pyrimidin-2-yl)-1H-pyrazol-4-yl)pyrazolo[1,5-a]pyrimidin-7(6H)-one], the IC50 was 18.5 nM.
